Data as given in US9475816B2, “Substituted-1,4-dihydropyrazolo[4,3-b]indoles” (TAKEDA PHARMACEUTICAL COMPANY LIMITED, priority 2012, dated 2016).

Columns and labels:
[1] = mice; cited from earlier work
[2] = tested on: angiogenesis; conditions: cited from earlier work
[3] = genetically and diet-induced obese mice; cited from earlier work
[4] = target: T1, human MetAP2 enzyme (Homo sapiens, UniProt P50579); test: MetAP2 enzyme assay, MetAP2 enzyme complexed with cobalt ions; conditions: MetAP2 Co pIC50, 10 μM CoCl2; -log(IC50), IC50 molar
T1 sequence (P50579 whole entry): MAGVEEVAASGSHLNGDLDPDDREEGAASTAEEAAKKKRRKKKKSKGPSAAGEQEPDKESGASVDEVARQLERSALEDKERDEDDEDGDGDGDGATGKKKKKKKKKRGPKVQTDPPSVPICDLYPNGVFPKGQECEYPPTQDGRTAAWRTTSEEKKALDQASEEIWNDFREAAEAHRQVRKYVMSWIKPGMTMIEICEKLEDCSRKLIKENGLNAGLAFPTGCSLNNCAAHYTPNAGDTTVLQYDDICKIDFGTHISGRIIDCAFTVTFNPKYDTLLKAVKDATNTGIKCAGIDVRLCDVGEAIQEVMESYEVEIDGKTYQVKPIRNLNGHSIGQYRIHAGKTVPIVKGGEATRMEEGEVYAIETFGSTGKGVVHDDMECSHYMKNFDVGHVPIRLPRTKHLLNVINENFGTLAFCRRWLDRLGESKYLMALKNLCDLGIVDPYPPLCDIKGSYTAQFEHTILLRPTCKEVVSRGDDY
Procedure: DNA encoding the full-length sequence of human MetAP2 enzyme is amplified by PCR and cloned into a pFastBac expression vector (Invitrogen). Recombinant baculovirus incorporating the MetAP2 construct is generated by transposition using the Bac-to-Bac system (Invitrogen). The expression of recombinant protein is carried out by infection of Spodoptera frugiperda Sf9 cells (Invitrogen) in 5L Wave Bioreactors (Wave Biotech). Recombinant protein is isolated from cellular extracts by binding to an SP Hitrap Fast Flow or SP Sepharose (Sigma) column, and the protein is eluted using a NaCl gradient. Partially purified extracts of MetAP2 are further purified by an AKTA FPLC over a Superdex-200 column (GE). The purity of MetAP2 protein is determined on denaturing SDS-PAGE gel.
The results for each well are expressed as percent inhibition and calculated using the equation:

[5] = target: T1, human MetAP2 enzyme; test: MetAP2 enzyme assay, MetAP2 enzyme complexed with manganese ions; conditions: MetAP2 Mn pIC50, 10 μM MnCl2; -log(IC50), IC50 molar

| Compound | effect on diet-induced obesity [1] | angiogenesis [2] | food intake, body weight, fat mass, size of adipocytes [3] | IC50 [4] [nM] | IC50 [5] [nM] |
| --- | --- | --- | --- | --- | --- |
| CO[C@@H]1[C@H](OC(=O)/C=C/C=C/C=C/C=C/C(=O)O)CC[C@]2(CO2)[C@H]1[C@@]1(C)O[C@@H]1CC=C(C)C [fumagillin] | impair diet-induced obesity | inhibit angiogenesis | – | – | – |
| beloranib hemioxalate [CKD-732] | – | – | decrease food intake, body weight, fat mass, and the size of adipocytes | – | – |
| Cc1nc(NC[C@H](C)O)ncc1-n1c2ccc(F)cc2c2[nH]ncc21 [Example 92, (2S)-1-((5-(7-Fluoropyrazolo[4,3-b]indol-4(1H)-yl)-4-methylpyrimidin-2-yl)amino)propan-2-ol] | – | – | – | 10 | 7.94 |
| Cc1nc(N2CC[C@@H](O)C2)ncc1-n1c2ccc(F)cc2c2[nH]ncc21 [Example 58, (3R)-1-(5-(7-Fluoropyrazolo[4,3-b]indol-4(1H)-yl)-4-methylpyrimidin-2-yl)pyrrolidin-3-ol] | – | – | – | 15.8 | 12.6 |
| Cc1nc2c(cc1-n1c3ccc(F)cc3c3[nH]ncc31)ncn2CCCO [Example 80, 3-(6-(7-Fluoropyrazolo[4,3-b]indol-4(1H)-yl)-5-methyl-3H-imidazo[4,5-b]pyridin-3-yl)propan-1-ol] | – | – | – | 20 | 31.6 |
